Source: ChEMBL document CHEMBL3885881, “DrugMatrix”
“And” between values parts separate entries of the source, which are not always exact repeats. Equal values may be shown once.

Species on record: Rattus norvegicus
Experiment: DrugMatrix - Regimen: Daily Repeat
Type: toxicity, organism-based, Sprague-Dawley
Design: regimen Daily Repeat, gender Male, age 6-8 weeks
Settings: in vivo, po, route oral GAVAGE, vehicle 100 % WATER; for ABSOLUTE BASOPHIL / ABSOLUTE LYMPHOCYTE / ABSOLUTE SEGMENTED NEUTROPHIL / BASOPHIL / EOSINOPHIL / ERYTHROCYTE COUNT / HEMATOCRIT / LEUKOCYTE COUNT / LYMPHOCYTE / MEAN CORPUSCULAR HEMOGLOBIN / MEAN CORPUSCULAR HEMOGLOBIN CONCENTRATION / MEAN CORPUSCULAR VOLUME / MONOCYTE / NEUTROPHIL / NUCLEATED RED BLOOD CELLS / PLATELET COUNT / ABSOLUTE MONOCYTE / ABSOLUTE EOSINOPHIL: tissue Blood; for ALANINE AMINOTRANSFERASE / ALBUMIN / ALKALINE PHOSPHATASE / ASPARTATE AMINOTRANSFERASE / BLOOD UREA NITROGEN / CARBON DIOXIDE / CHLORIDE / CHOLESTEROL / CREATINE PHOSPHOKINASE / CREATININE / GLUCOSE / LACTATE DEHYDROGENASE / LIPASE / PHOSPHORUS / POTASSIUM / SODIUM / TOTAL BILIRUBIN / TOTAL PROTEIN / URIC ACID: tissue Plasma
[1] = 0 mg/kg, 72 h, dose level Control, time 3 day
[2] = 0 mg/kg, 120 h, dose level Control, time 5 day
[3] = 235 mg/kg, 72 h, dose level Low, time 3 day
[4] = 235 mg/kg, 120 h, dose level Low, time 5 day
[5] = 850 mg/kg, 72 h, dose level M1, time 3 day

CCCC(CCC)C(=O)O [VALPROIC ACID]
ABSOLUTE BASOPHIL [1]: 0 CELLS/uL
ABSOLUTE LYMPHOCYTE [1]: 10696 CELLS/uL and 11257.17 CELLS/uL
ABSOLUTE SEGMENTED NEUTROPHIL [1]: 1045.33 CELLS/uL and 1220.33 CELLS/uL
BASOPHIL [1]: 0%
EOSINOPHIL [1]: 1% and 0.33%
ERYTHROCYTE COUNT [1]: 5.87 x10E6/uL and 5 x10E6/uL
HEMATOCRIT [1]: 38.5% and 32.62%
LEUKOCYTE COUNT [1]: 12.07 x10E3/uL and 12.58 x10E3/uL
LYMPHOCYTE [1]: 88.33% and 89%
MEAN CORPUSCULAR HEMOGLOBIN [1]: 23.47 pg and 25.67 pg
MEAN CORPUSCULAR HEMOGLOBIN CONCENTRATION [1]: 35.7 G/DL and 39.35 G/DL
MEAN CORPUSCULAR VOLUME [1]: 65.63 fL and 65.23 fL
MONOCYTE [1]: 2% and 0.67%
NEUTROPHIL [1]: 8.67% and 10%
NUCLEATED RED BLOOD CELLS [1]: 0 /100WBC
PLATELET COUNT [1]: 1151.33 x10E3/uL and 1162.5 x10E3/uL
ALANINE AMINOTRANSFERASE [1]: 60.67 u/L and 45.33 u/L
ALBUMIN [1]: 4.23 G/DL and 3.95 G/DL
ALKALINE PHOSPHATASE [1]: 377.67 u/L and 356.17 u/L
ASPARTATE AMINOTRANSFERASE [1]: 85.33 u/L and 81 u/L
BLOOD UREA NITROGEN [1]: 15 mg/dL and 11 mg/dL
CARBON DIOXIDE [1]: 37 mmol/L and 29.83 mmol/L
CHLORIDE [1]: 97.67 MEQ/L and 97.8 MEQ/L
CHOLESTEROL [1]: 70.67 mg/dL and 65.17 mg/dL
CREATINE PHOSPHOKINASE [1]: 361.67 u/L and 211.33 u/L
CREATININE [1]: 0.18 mg/dL and 0.11 mg/dL
GLUCOSE [1]: 154 mg/dL and 164.67 mg/dL
LACTATE DEHYDROGENASE [1]: 99 u/L and 143.17 u/L
LIPASE [1]: 12.67 u/L and 10.17 u/L
PHOSPHORUS [1]: 9.53 mg/dL and 10.88 mg/dL
POTASSIUM [1]: 5.55 MEQ/L and 6.08 MEQ/L
SODIUM [1]: 143.1 MEQ/L and 141.54 MEQ/L
TOTAL BILIRUBIN [1]: 0.2 mg/dL and 0.23 mg/dL
TOTAL PROTEIN [1]: 5.97 G/DL and 5.65 G/DL
URIC ACID [1]: 0.77 mg/dL and 1 mg/dL
ABSOLUTE BASOPHIL [2]: 0 CELLS/uL
ABSOLUTE LYMPHOCYTE [2]: 9535 CELLS/uL and 9267.83 CELLS/uL
ABSOLUTE MONOCYTE [2]: 182 CELLS/uL and 194.33 CELLS/uL
ABSOLUTE SEGMENTED NEUTROPHIL [2]: 783 CELLS/uL and 572.5 CELLS/uL
BASOPHIL [2]: 0%
EOSINOPHIL [2]: 0% and 0.33%
ERYTHROCYTE COUNT [2]: 5.35 x10E6/uL and 5.41 x10E6/uL
HEMATOCRIT [2]: 34.17% and 36.17%
LEUKOCYTE COUNT [2]: 10.5 x10E3/uL and 10.08 x10E3/uL
LYMPHOCYTE [2]: 89.67% and 92.17%
MEAN CORPUSCULAR HEMOGLOBIN [2]: 24.67 pg and 25.73 pg
MEAN CORPUSCULAR HEMOGLOBIN CONCENTRATION [2]: 38.57 G/DL and 38.45 G/DL
MEAN CORPUSCULAR VOLUME [2]: 63.9 fL and 66.97 fL
MONOCYTE [2]: 1.67% and 1.83%
NEUTROPHIL [2]: 8.67% and 5.67%
PLATELET COUNT [2]: 990 x10E3/uL and 1122.33 x10E3/uL
ALANINE AMINOTRANSFERASE [2]: 46.67 u/L and 52.83 u/L
ALBUMIN [2]: 3.97 G/DL and 4.12 G/DL
ALKALINE PHOSPHATASE [2]: 343.67 u/L and 367.33 u/L
ASPARTATE AMINOTRANSFERASE [2]: 71 u/L and 88 u/L
BLOOD UREA NITROGEN [2]: 11.67 mg/dL and 12.67 mg/dL
CARBON DIOXIDE [2]: 27 mmol/L and 33.67 mmol/L
CHLORIDE [2]: 105.33 MEQ/L and 97 MEQ/L
CHOLESTEROL [2]: 70.67 mg/dL and 67.5 mg/dL
CREATINE PHOSPHOKINASE [2]: 208.67 u/L and 358.67 u/L
CREATININE [2]: 0.1 mg/dL and 0.14 mg/dL
GLUCOSE [2]: 161.33 mg/dL and 152.33 mg/dL
LIPASE [2]: 9.33 u/L and 10.5 u/L
PHOSPHORUS [2]: 12.7 mg/dL and 10.63 mg/dL
POTASSIUM [2]: 5.59 MEQ/L and 5.99 MEQ/L
SODIUM [2]: 147.1 MEQ/L and 141.85 MEQ/L
TOTAL BILIRUBIN [2]: 0.17 mg/dL and 0.2 mg/dL
TOTAL PROTEIN [2]: 5.97 G/DL and 6.18 G/DL
URIC ACID [2]: 0.73 mg/dL and 0.52 mg/dL
ABSOLUTE BASOPHIL [3]: 0 CELLS/uL
ABSOLUTE EOSINOPHIL [3]: 39.33 CELLS/uL
ABSOLUTE LYMPHOCYTE [3]: 3794.33 CELLS/uL
ABSOLUTE MONOCYTE [3]: 121.33 CELLS/uL
ABSOLUTE SEGMENTED NEUTROPHIL [3]: 678.33 CELLS/uL
BASOPHIL [3]: 0%
EOSINOPHIL [3]: 0.67%
ERYTHROCYTE COUNT [3]: 5.06 x10E6/uL
HEMATOCRIT [3]: 32.73%
LEUKOCYTE COUNT [3]: 4.63 x10E3/uL
LYMPHOCYTE [3]: 81.33%
MEAN CORPUSCULAR HEMOGLOBIN [3]: 25.03 pg
MEAN CORPUSCULAR HEMOGLOBIN CONCENTRATION [3]: 38.63 G/DL
MEAN CORPUSCULAR VOLUME [3]: 64.7 fL
MONOCYTE [3]: 2.67%
NEUTROPHIL [3]: 15.33%
NUCLEATED RED BLOOD CELLS [3]: 0 /100WBC
PLATELET COUNT [3]: 772 x10E3/uL
ALANINE AMINOTRANSFERASE [3]: 57 u/L
ALBUMIN [3]: 4.1 G/DL
ALKALINE PHOSPHATASE [3]: 212.67 u/L
ASPARTATE AMINOTRANSFERASE [3]: 81 u/L
BLOOD UREA NITROGEN [3]: 11 mg/dL
CARBON DIOXIDE [3]: 37.33 mmol/L
CHLORIDE [3]: 98.33 MEQ/L
CHOLESTEROL [3]: 62 mg/dL
CREATINE PHOSPHOKINASE [3]: 233 u/L
CREATININE [3]: 0.3 mg/dL
GLUCOSE [3]: 154 mg/dL
LACTATE DEHYDROGENASE [3]: 73 u/L
LIPASE [3]: 10 u/L
PHOSPHORUS [3]: 9.7 mg/dL
POTASSIUM [3]: 5.09 MEQ/L
SODIUM [3]: 143.63 MEQ/L
TOTAL BILIRUBIN [3]: 0.13 mg/dL
TOTAL PROTEIN [3]: 5.57 G/DL
URIC ACID [3]: 0.47 mg/dL
ABSOLUTE BASOPHIL [4]: 0 CELLS/uL
ABSOLUTE EOSINOPHIL [4]: 0 CELLS/uL
ABSOLUTE LYMPHOCYTE [4]: 6770.33 CELLS/uL
ABSOLUTE MONOCYTE [4]: 195 CELLS/uL
ABSOLUTE SEGMENTED NEUTROPHIL [4]: 868 CELLS/uL
BASOPHIL [4]: 0%
EOSINOPHIL [4]: 0%
ERYTHROCYTE COUNT [4]: 5.27 x10E6/uL
HEMATOCRIT [4]: 33.47%
LEUKOCYTE COUNT [4]: 7.83 x10E3/uL
LYMPHOCYTE [4]: 89%
MEAN CORPUSCULAR HEMOGLOBIN [4]: 24.47 pg
MEAN CORPUSCULAR HEMOGLOBIN CONCENTRATION [4]: 38.57 G/DL
MEAN CORPUSCULAR VOLUME [4]: 63.43 fL
MONOCYTE [4]: 2.33%
NEUTROPHIL [4]: 8.67%
NUCLEATED RED BLOOD CELLS [4]: 0 /100WBC
PLATELET COUNT [4]: 955 x10E3/uL
ALANINE AMINOTRANSFERASE [4]: 52.33 u/L
ALBUMIN [4]: 4.03 G/DL
ALKALINE PHOSPHATASE [4]: 290.67 u/L
ASPARTATE AMINOTRANSFERASE [4]: 77.33 u/L
BLOOD UREA NITROGEN [4]: 12 mg/dL
CARBON DIOXIDE [4]: 28.67 mmol/L
CHLORIDE [4]: 103.67 MEQ/L
CHOLESTEROL [4]: 71.67 mg/dL
CREATINE PHOSPHOKINASE [4]: 272 u/L
CREATININE [4]: 0.22 mg/dL
GLUCOSE [4]: 144.33 mg/dL
LACTATE DEHYDROGENASE [4]: 50.67 u/L
LIPASE [4]: 9.33 u/L
PHOSPHORUS [4]: 10.47 mg/dL
POTASSIUM [4]: 5.47 MEQ/L
SODIUM [4]: 144.07 MEQ/L
TOTAL BILIRUBIN [4]: 0.13 mg/dL
TOTAL PROTEIN [4]: 5.93 G/DL
URIC ACID [4]: 0.43 mg/dL
ABSOLUTE BASOPHIL [5]: 0 CELLS/uL
ABSOLUTE EOSINOPHIL [5]: 40.67 CELLS/uL
